Data from article PMC7531004, “Discovery of gramicidin A analogues with altered activities by multidimensional screening of a one-bead-one-compound library” (Nature Communications, 2020).
Where a SMILES comes first, the peptide text is derived from it. [ ]: non-standard residue; d: D form. The star is where a group is joined. NHCH2CH2OH = OCCN*; For = O=C*

What was measured:
[1] = H+/Na+ transport assay of bead-derived peptides (one-point); type: biochemical; set-up: key: relative activity; mean of two control wells = 1.00; settings: bead-derived peptide solution, EYPC/EYPG LUVs;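 note: relative to parent gramicidin A activity set to 1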
Method: (§1) Each type of assay must be simplified and miniaturized to assess the activities of the library peptides in a 96-well format for the high-throughput screening.
H+/Na+ transport assay of bead-derived peptides.1,2,3 Trisodium 8-hydroxypyrene-1,3,6-trisulfonate
mini-extruder apparatus (Avanti Polar Lipids).
28.9 µmol) in CHCl3 (225 µL) and egg yolk phosphatidylglycerol (1.20 mg, 1.56 µmol) in CHCl3 (60.0 µL)
The thin film was hydrated and
1.0 mM pyranine) by sonication.
A suspension of the LUVs was immediately
used for the H+/Na+ transport assay.
The diluted solution of peptide
flat-bottom 96-well plate (655086, Greiner bio-one).
was vortexed at room temperature for 30 min.
(5/95, 3.0 µL) and the LUV suspension were mixed in each plate to determine 100% lysis. The untreated
LUV suspension was used to determine 0% lysis.
normalized against 100% lysis by Triton X-100 (Imax) and 0% lysis (I0) as following, where Ix is the
fluorescence intensity (Supplementary Equation 2).
I = 100 × (Ix – I0) / (Imax – I0) (2)
The mean value of the two control wells was set to 1.00. […]

[2] = system: Streptococcus pyogenes SSI-9; experiment: Antibacterial activity assay of bead-derived peptides (three concentrations); type: cell-based; set-up: key: +++: inhibition by the 640-fold diluted peptide solution; ++: inhibition by the 160-fold diluted solution; +: inhibition by the 40-fold diluted solution; -: no inhibition; settings: S. pyogenes, bead-derived peptide solution, three concentrations
Method: as §1
Next, the peptides in groups A and B were subjected to the antibacterial assay and structural determination. Three peptide concentrations were applied to evaluate the growth inhibition of S. pyogenes and determine the antibacterial activity. […] Finally, the structures of the peptides were determined. […]
Antibacterial activity assay of bead-derived peptides. The stock solution of the peptide library was 4- and […]
16-fold diluted with DMSO. The non-diluted stock solution, 4-fold diluted solution, and 16-fold diluted […]
solution were transferred to the 96-well round-bottom plate (3367, Corning, 1.0 µL/well). To the solution of […]
peptide in each well was added a suspension of Streptococcus pyogenes SSI-9 strain in cation adjusted […]
Mueller Hinton Broth [40.0 µL, 2 × 10^5 colony forming units (CFU), 21 g/L Mueller Hinton Broth (Difco), 50 […]
mg/L Ca2+ (adjusted with CaCl2•2H2O), and 25 mg/L Mg2+ (adjusted with MgCl2•6H2O)] supplemented with […]
5% laked horse blood (Nippon Biotest Laboratories). The plate was incubated at 37 °C for 18 h, and the precipitation of the grown cells was examined. […]

[3] = system: P388 mouse leukemia cells; settings: 92 h
Description: Each type of assay must be simplified and miniaturized to assess the activities of the library peptides in a 96-well format for the high-throughput screening. […]
Mammalian cytotoxicity assay of bead-derived peptides . P388 cells were obtained from Institute of
Development Aging and Cancer (Tohoku University). The cells were maintained with growth medium
[RPMI1640 with phenol red ( Fujifilm Wako Pure Chemical) supplemented with 10% heat -inactivated fetal
bovine serum, pe nicillin G (100 units/mL), and streptomycin (100 µg/mL)] under atmosphere of 5% CO 2 at
The collected cells were resuspended into
the growth medium at 2 × 10^4 cells/mL. The stock solutions of the peptide library were 250-fold diluted
with the growth medium. Aliquots of the medium (100 µL) containing peptides and the latter medium
containing P388 cells (100 µL) were mixed in a 96-well cell culture plate (TR5003, TrueLine). The final
concentration of P388 cells was 1 × 10^4 cells/mL. After incubation under atmosphere of 5% CO2 at 37 °C
for 92 h, the numbers of viable cells were determined by
2-(4-iodophenyl)-3-(4-nitrophenyl)-5-(2,4-disulfophenyl)-2H-tetrazolium, monosodium salt (WST-1) assay.
A solution of 1-methoxy-5-methylphenazinium methyl sulfate (1-methoxy PMS) and WST-1 in the growth
medium (1-methoxy PMS 0.70 mg/mL in Milli-Q/WST-1 3.6 mg/mL in pH 7.4 HEPES buffer = 1/9) was
added to each well of the plate (10.0 µL/well). The plate was incubated for 4 h under atmosphere of 5% CO2
at 37 °C. The absorbance of each well at 415 nm was measured using a Benchmark microplate reader
(Bio-Rad). The cytotoxicities were evaluated as cell viability (%). […]

SMILES	H+/Na+ transport activity normalized against the value of 1 (1.00) [1]	antibacterial activity [2]	cell viability/% [3] [%]
CNC(=O)C[C@@H](NC(=O)[C@@H](NC(=O)[C@@H](CC(C)C)NC(=O)[C@H](C)NC(=O)[C@@H](CC(C)C)NC(=O)[C@H](C)NC(=O)CNC(=O)[C@@H](NC=O)C(C)C)C(C)C)C(=O)N[C@@H](Cc1c[nH]c2ccccc12)C(=O)N[C@@H](C(=O)N[C@@H](Cc1c[nH]c2ccccc12)C(=O)N[C@@H](C(=O)N[C@@H](Cc1c[nH]c2ccccc12)C(=O)N[C@H](CC(C)C)C(=O)N[C@@H](Cc1c[nH]c2ccccc12)C(=O)NCCO)C(C)C)C(C)C [compound 12307] (For-VGA[dL]A[dL]V[dD](NHMe)W[dV]W[dV]W[dL]W-NHCH2CH2OH)	1.32	-	100.0
CC(C)C[C@@H](NC(=O)[C@H](Cc1c[nH]c2ccccc12)NC(=O)[C@H](NC(=O)[C@H](Cc1c[nH]c2ccccc12)NC(=O)[C@@H](CC(C)C)NC(=O)[C@H](Cc1c[nH]c2ccccc12)NC(=O)[C@H](NC(=O)[C@@H](NC(=O)[C@H](NC(=O)[C@H](C)NC(=O)[C@H](NC(=O)[C@H](C)NC(=O)CNC(=O)[C@@H](NC=O)C(C)C)C(C)C)C(C)C)C(C)C)[C@H](C)O)C(C)C)C(=O)N[C@@H](Cc1c[nH]c2ccccc12)C(=O)NCCO [compound 7702] (For-VGA[dV]A[dV]V[dT]W[dL]W[dV]W[dL]W-NHCH2CH2OH)	1.01	-	100.0
CNC(=O)C[C@@H](NC(=O)[C@@H](NC(=O)[C@@H](CC(C)C)NC(=O)[C@H](C)NC(=O)[C@@H](CC(C)C)NC(=O)[C@H](C)NC(=O)CNC(=O)[C@@H](NC=O)C(C)C)C(C)C)C(=O)N[C@@H](Cc1c[nH]c2ccccc12)C(=O)N[C@H](CC(C)C)C(=O)N[C@@H](Cc1c[nH]c2ccccc12)C(=O)N[C@H](CC(C)C)C(=O)N[C@@H](Cc1c[nH]c2ccccc12)C(=O)N[C@@H](C(=O)N[C@@H](Cc1c[nH]c2ccccc12)C(=O)NCCO)[C@H](C)O [compound 2967] (For-VGA[dL]A[dL]V[dD](NHMe)W[dL]W[dL]W[dT]W-NHCH2CH2OH)	1.04	-	100.0
CNC(=O)C[C@@H](NC(=O)[C@H](Cc1c[nH]c2ccccc12)NC(=O)[C@H](NC(=O)[C@H](Cc1c[nH]c2ccccc12)NC(=O)[C@@H](CC(C)C)NC(=O)[C@H](Cc1c[nH]c2ccccc12)NC(=O)[C@@H](CC(C)C)NC(=O)[C@@H](NC(=O)[C@@H](CC(C)C)NC(=O)[C@H](C)NC(=O)[C@@H](CC(C)C)NC(=O)[C@H](C)NC(=O)CNC(=O)[C@@H](NC=O)C(C)C)C(C)C)C(C)C)C(=O)N[C@@H](Cc1c[nH]c2ccccc12)C(=O)NCCO [compound 2764] (For-VGA[dL]A[dL]V[dL]W[dL]W[dV]W[dD](NHMe)W-NHCH2CH2OH)	1.12	-	75.7
CC(C)C[C@@H](NC(=O)[C@H](Cc1c[nH]c2ccccc12)NC(=O)[C@@H](CC(C)C)NC(=O)[C@@H](NC(=O)[C@H](NC(=O)[C@H](C)NC(=O)[C@H](NC(=O)[C@H](C)NC(=O)CNC(=O)[C@@H](NC=O)C(C)C)[C@H](C)O)C(C)C)C(C)C)C(=O)N[C@@H](Cc1c[nH]c2ccccc12)C(=O)N[C@H](CC(C)C)C(=O)N[C@@H](Cc1c[nH]c2ccccc12)C(=O)N[C@@H](C(=O)N[C@@H](Cc1c[nH]c2ccccc12)C(=O)NCCO)C(C)C [compound 94] (For-VGA[dT]A[dV]V[dL]W[dL]W[dL]W[dV]W-NHCH2CH2OH)	1.16	-	100.0
CNC(=O)C[C@@H](NC(=O)[C@@H](NC(=O)[C@H](NC(=O)[C@H](C)NC(=O)[C@H](NC(=O)[C@H](C)NC(=O)CNC(=O)[C@@H](NC=O)C(C)C)C(C)C)C(C)C)C(C)C)C(=O)N[C@@H](Cc1c[nH]c2ccccc12)C(=O)N[C@@H](C(=O)N[C@@H](Cc1c[nH]c2ccccc12)C(=O)N[C@H](CC(C)C)C(=O)N[C@@H](Cc1c[nH]c2ccccc12)C(=O)N[C@H](CC(C)C)C(=O)N[C@@H](Cc1c[nH]c2ccccc12)C(=O)NCCO)C(C)C [compound 4049] (For-VGA[dV]A[dV]V[dD](NHMe)W[dV]W[dL]W[dL]W-NHCH2CH2OH)	1.15	-	100.0
CNC(=O)C[C@@H](NC(=O)[C@@H](NC(=O)[C@H](NC(=O)[C@H](C)NC(=O)[C@@H](CC(C)C)NC(=O)[C@H](C)NC(=O)CNC(=O)[C@@H](NC=O)C(C)C)C(C)C)C(C)C)C(=O)N[C@@H](Cc1c[nH]c2ccccc12)C(=O)N[C@H](CC(C)C)C(=O)N[C@@H](Cc1c[nH]c2ccccc12)C(=O)N[C@@H](C(=O)N[C@@H](Cc1c[nH]c2ccccc12)C(=O)N[C@H](CC(C)C)C(=O)N[C@@H](Cc1c[nH]c2ccccc12)C(=O)NCCO)C(C)C [compound 2881] (For-VGA[dL]A[dV]V[dD](NHMe)W[dL]W[dV]W[dL]W-NHCH2CH2OH)	1.16	-	100.0
CC(C)C[C@@H](NC(=O)[C@H](C)NC(=O)CNC(=O)[C@@H](NC=O)C(C)C)C(=O)N[C@@H](C)C(=O)N[C@@H](C(=O)N[C@H](C(=O)N[C@@H](C(=O)N[C@@H](Cc1c[nH]c2ccccc12)C(=O)N[C@@H](C(=O)N[C@@H](Cc1c[nH]c2ccccc12)C(=O)N[C@H](CC(C)C)C(=O)N[C@@H](Cc1c[nH]c2ccccc12)C(=O)N[C@@H](C(=O)N[C@@H](Cc1c[nH]c2ccccc12)C(=O)NCCO)C(C)C)C(C)C)[C@H](C)O)C(C)C)C(C)C [compound 4427] (For-VGA[dL]A[dV]V[dT]W[dV]W[dL]W[dV]W-NHCH2CH2OH)	1.18	-	100.0
CC(C)C[C@@H](NC(=O)[C@H](C)NC(=O)[C@H](NC(=O)[C@H](C)NC(=O)CNC(=O)[C@@H](NC=O)C(C)C)C(C)C)C(=O)N[C@H](C(=O)N[C@@H](C(=O)N[C@@H](Cc1c[nH]c2ccccc12)C(=O)N[C@H](CC(C)C)C(=O)N[C@@H](Cc1c[nH]c2ccccc12)C(=O)N[C@@H](C(=O)N[C@@H](Cc1c[nH]c2ccccc12)C(=O)N[C@@H](C(=O)N[C@@H](Cc1c[nH]c2ccccc12)C(=O)NCCO)C(C)C)C(C)C)[C@H](C)O)C(C)C [compound 8779] (For-VGA[dV]A[dL]V[dT]W[dL]W[dV]W[dV]W-NHCH2CH2OH)	1.07	-	40.6
CC(C)C[C@@H](NC(=O)[C@H](Cc1c[nH]c2ccccc12)NC(=O)[C@@H](CC(C)C)NC(=O)[C@H](Cc1c[nH]c2ccccc12)NC(=O)[C@@H](CC(C)C)NC(=O)[C@H](Cc1c[nH]c2ccccc12)NC(=O)[C@H](NC(=O)[C@@H](NC(=O)[C@H](NC(=O)[C@H](C)NC(=O)[C@H](NC(=O)[C@H](C)NC(=O)CNC(=O)[C@@H](NC=O)C(C)C)C(C)C)C(C)C)C(C)C)[C@H](C)O)C(=O)N[C@@H](Cc1c[nH]c2ccccc12)C(=O)NCCO [compound 12287] (For-VGA[dV]A[dV]V[dT]W[dL]W[dL]W[dL]W-NHCH2CH2OH)	1.16	-	100.0
